This is an account of results in US20070032460A1, “Use of voacamine and related compounds in the treatment of malaria” (priority 2005, published 2007).

Read-outs that look alike come from different tables or passages of the source.

Data set [1] concerns CQ-sensitive (D6) strain of P. falciparum. It counts as cell-based.
The conditions of data set [2]: doses of 2000 and 5000 mg/day; cited from earlier work.
The subject of another data set is Plasmodium falciparum. To be noted: verapamil alone, without chloroquine; cited from earlier work.
Setting [3] is: chloroquine-sensitive strain of P. falciparum, in vitro, Table V, read-out: IC50 (10^−7 M) S.
[4] abbreviates: Plasmodium falciparum, D6, chloroquine-sensitive strain of P. falciparum, in vitro, Table V, read-out: IC50 (10^−7 M) S.

Consider `C[C@@H]1CC[C@H]2[C@@H](C)C(=O)O[C@@H]3O[C@@]4(C)CC[C@@H]1[C@]32OO4` [QHS, qinghaosu, reference compound], for which the IC50 in data set [1] (S strain (D6), VOA/QHS ratio 10:1, read-out: IC50 of each drug in combination VOA (2.0 μM) QHS (0.2 μM)) is 14.6 ± 0.8 nM; in data set [1] (S strain (D6), VOA/QHS ratio 10:3, read-out: IC50 of each drug in combination VOA (1.0 μM) QHS (0.3 μM)), 25.9 ± 2.5 nM; in data set [1] (S strain (D6), VOA/QHS ratio 30:1, read-out: IC50 of each drug in combination VOA (3.0 μM) QHS (0.1 μM)), 9.7 ± 2.3 nM; in data set [1] (S strain (D6), drug alone, Table II, mean ± S.D., three experiments, read-out: IC50, single drug) it was 38.3 ± 4.7 nM.

With Ervahanine, the 50% inhibitory concentration (IC50) in data set [1] (setting [3]) amounted to 680 nM.

For `CCN(CC)CCCC(C)Nc1ccnc2cc(Cl)ccc12` (centres unmarked) [CQ, chloroquine, reference compound], the IC50 in data set [1] (Plasmodium falciparum, D6, read-out: IC50, single drug) turned out to be 28.5 ± 3.5 nM; in data set [1] (Plasmodium falciparum, D6, read-out: IC50 of each drug in combination VOA (1.0 μM) CQ (0.3 μM)) it was 15.9 ± 2.7 nM; in data set [1] (Plasmodium falciparum, D6, read-out: IC50 of each drug in combination VOA (2.0 μM) CQ (0.2 μM)), 13.5 ± 2.9 nM; in data set [1] (Plasmodium falciparum, D6, read-out: IC50 of each drug in combination VOA (3.0 μM) CQ (0.1 μM)), 8.2 ± 1.5 nM.

For Voacamidine [VDN], the IC50 in data set [1] (setting [3]) came to 510 nM.

In the case of Tabernamine, the IC50 in data set [1] (setting [3]) was 650 nM.

For `CC[C@H]1C[C@@H]2CN3CCc4c([nH]c5ccccc45)[C@](C(=O)OC)(C2)[C@H]13` [COR, Coronaridine], in data set [1] (setting [4]), the IC50 came to 500 nM.

Take `CC=C1CN(C)C2Cc3c([nH]c4ccccc34)C(c3cc4[nH]c5c(c4cc3OC)CCN3CC4CC(CC)C3C5(C(=O)OC)C4)CC1C2C(=O)OC` (centres unmarked) [VOA, Voacamine]: the “toxicity in prior studies” value in data set [2] is “minimal toxicity”. Further, the IC50 was 240 nM in data set [1] (Plasmodium falciparum, D6, read-out: IC50 (10^−7 M) S, chloroquine-sensitive strain of P. falciparum, in vitro, Table V); 238 ± 23.7 nM in data set [1] (Plasmodium falciparum, D6, read-out: IC50, single drug, S strain (D6), drug alone, Table 1, mean ± S.D., three experiments); 298 ± 59.8 nM in data set [1] (Plasmodium falciparum, D6, read-out: IC50, single drug, S strain (D6), drug alone, Table II, mean ± S.D., three experiments); 56.9 ± 8.2 nM in data set [1] (Plasmodium falciparum, D6, read-out: IC50 of each drug in combination VOA (1.0 μM) CQ (0.3 μM), S strain (D6), VOA/CQ ratio 10:3); 87.2 ± 9.5 nM in data set [1] (Plasmodium falciparum, D6, read-out: IC50 of each drug in combination VOA (1.0 μM) QHS (0.3 μM), S strain (D6), VOA/QHS ratio 10:3); 114 ± 25.1 nM in data set [1] (Plasmodium falciparum, D6, read-out: IC50 of each drug in combination VOA (2.0 μM) CQ (0.2 μM), S strain (D6), VOA/CQ ratio 10:1). For the same compound, the IC50 worked out at 114 ± 5.6 nM in data set [1] (Plasmodium falciparum, D6, read-out: IC50 of each drug in combination VOA (2.0 μM) QHS (0.2 μM), S strain (D6), VOA/QHS ratio 10:1); 223 ± 35.8 nM in data set [1] (Plasmodium falciparum, D6, read-out: IC50 of each drug in combination VOA (3.0 μM) CQ (0.1 μM), S strain (D6), VOA/CQ ratio 30:1); 240 ± 45.3 nM in data set [1] (Plasmodium falciparum, D6, read-out: IC50 of each drug in combination VOA (3.0 μM) QHS (0.1 μM), S strain (D6), VOA/QHS ratio 30:1).

For N6Demethylvoacamine [NDV], in data set [1] (setting [3]), the IC50 came to 470 nM.

For the compound `COc1ccc(CCN(C)CCCC(C#N)(c2ccc(OC)c(OC)c2)C(C)C)cc1OC` (centres unmarked) [verapamil], the “effect on malaria, drug alone” value with Plasmodium falciparum was “no effect”.

Regarding Decarbomethoxyvoacamine [DCV], the IC50 in data set [1] (setting [3]) was 490 nM.

With `C/C=C1/CN(C)[C@H]2Cc3c([nH]c4ccccc34)C(=O)C[C@H]1[C@@H]2C(=O)OC` [VOB, Vobasine], the IC50 in data set [1] (setting [4]) stood at 470 nM.

In general, IC50 refers to the midpoint of a concentration-inhibition curve.
